Reference: PubChem BioAssay AID2060491 (Molecular Pharmacology Branch, DTP, NCI, 2025)

System: 857933-349-R-J2-PDC complex spheroids, viability
Experiment: Anticancer human tumor 857933-349-R-J2-PDC patient-derived colon adenocarcinoma cell line growth inhibition [GQUAD]
Conditions: for IC50: curve of first compound; for viability, T/C: stronger effect = lower value; active = viability on the fitted dose curve at most 10% of control; inactive = the rest
Outline: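 Viability of tumor cells grown as complex spheroids with endothelial and stromal cells, exposed to drug combinations. Top concentration at or near clinical Cmax (else 10 microM), diluted in half-log increments.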

[1] = second compound 0.0316 µM, first compound 0.0316 µM
[2] = second compound 0.0316 µM, first compound 0.1 µM
[3] = second compound 0.0316 µM, first compound 0.316 µM
[4] = second compound 0.0316 µM, first compound 1 µM
[5] = second compound 0.0316 µM, first compound 3.16 µM
[6] = second compound 0.0316 µM, first compound 10 µM
[7] = second compound 0.1 µM, first compound 0.0316 µM
[8] = second compound 0.1 µM, first compound 0.1 µM
[9] = second compound 0.1 µM, first compound 0.316 µM
[10] = second compound 0.1 µM, first compound 1 µM
[11] = second compound 0.1 µM, first compound 3.16 µM
[12] = second compound 0.1 µM, first compound 10 µM
[13] = second compound 0.316 µM, first compound 0.0316 µM
[14] = second compound 0.316 µM, first compound 0.1 µM
[15] = second compound 0.316 µM, first compound 0.316 µM
[16] = second compound 0.316 µM, first compound 1 µM
[17] = second compound 0.316 µM, first compound 3.16 µM
[18] = second compound 0.316 µM, first compound 10 µM
[19] = second compound 1 µM, first compound 0.0316 µM
[20] = second compound 1 µM, first compound 0.1 µM
[21] = second compound 1 µM, first compound 0.316 µM
[22] = second compound 1 µM, first compound 1 µM
[23] = second compound 1 µM, first compound 3.16 µM
[24] = second compound 1 µM, first compound 10 µM
[25] = second compound 3.16 µM, first compound 0.0316 µM
[26] = second compound 3.16 µM, first compound 0.1 µM
[27] = second compound 3.16 µM, first compound 0.316 µM
[28] = second compound 3.16 µM, first compound 1 µM
[29] = second compound 3.16 µM, first compound 3.16 µM
[30] = second compound 3.16 µM, first compound 10 µM
[31] = second compound 10 µM, first compound 0.0316 µM
[32] = second compound 10 µM, first compound 0.1 µM
[33] = second compound 10 µM, first compound 0.316 µM
[34] = second compound 10 µM, first compound 1 µM
[35] = second compound 10 µM, first compound 3.16 µM
[36] = second compound 10 µM, first compound 10 µM
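Also: spheroids exposed to compounds for one week before readout.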
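For viability, T/C in this document: percent viability relative to vehicle DMSO wells taken as 100%.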

CC1COCCN1c1cc(C2(O)CC3CCC(C2)O3)c2cnn(-c3ccn[nH]3)c2n1 (stereo unspecified) + Cc1cnc(CNC(=O)c2c(=O)c3ccc(N4CCCN(C)CC4)nc3n3c2sc2ccccc23)cn1
inactive: viability, T/C [1] 49.9% | viability, T/C [2] 38.6% | viability, T/C [3] 36.8% | viability, T/C [4] 32.6% | viability, T/C [5] 35.3% | viability, T/C [6] 32% | viability, T/C [7] 33% | viability, T/C [8] 30.3% | viability, T/C [9] 21.1% | viability, T/C [10] 28% | viability, T/C [11] 31.8% | viability, T/C [12] 34%
< 31.6 nM: IC50 (second compound 0.0316 µM) | IC50 (second compound 0.1 µM) | IC50 (second compound 0.316 µM) | IC50 (second compound 1 µM) | IC50 (second compound 3.16 µM) | IC50 (second compound 10 µM)
active: viability, T/C [13] 8.32% | viability, T/C [14] 5.49% | viability, T/C [15] 5.41% | viability, T/C [16] 4.77% | viability, T/C [17] 9.73% | viability, T/C [18] 13.8% | viability, T/C [19] 2.88% | viability, T/C [20] 2.12% | viability, T/C [21] 2.17% | viability, T/C [22] 2.14% | viability, T/C [23] 4.27% | viability, T/C [24] 1.54% | viability, T/C [25] 1.85% | viability, T/C [26] 1.84% | viability, T/C [27] 1.55% | viability, T/C [28] 1.35% | viability, T/C [29] 1.5% | viability, T/C [30] 0.57% | viability, T/C [31] 0.52% | viability, T/C [32] 0.38% | viability, T/C [33] 0.33% | viability, T/C [34] 0.38% | viability, T/C [35] 0.85% | viability, T/C [36] 0.32%

CC1COCCN1c1cc(C2(S(C)(=N)=O)CC2)nc(-c2ccnc3[nH]ccc23)n1 (stereo unspecified) + Cc1cnc(CNC(=O)c2c(=O)c3ccc(N4CCCN(C)CC4)nc3n3c2sc2ccccc23)cn1
800 nM: IC50 (second compound 0.0316 µM)
< 31.6 nM: IC50 (second compound 0.316 µM) | IC50 (second compound 1 µM) | IC50 (second compound 3.16 µM) | IC50 (second compound 10 µM)
inactive: viability, T/C [1] 82% | viability, T/C [2] 75.7% | viability, T/C [3] 72.3% | viability, T/C [4] 43.8% | viability, T/C [5] 42.1% | viability, T/C [6] 31.9% | viability, T/C [7] 56.5% | viability, T/C [8] 68.6% | viability, T/C [9] 45.8% | viability, T/C [10] 39.1% | viability, T/C [11] 34.4% | viability, T/C [12] 26.7% | viability, T/C [13] 26.8% | viability, T/C [14] 31.2% | viability, T/C [15] 20.8% | viability, T/C [16] 13.4% | viability, T/C [17] 10.6%
327 nM: IC50 (second compound 0.1 µM)
active: viability, T/C [18] 10% | viability, T/C [19] 5.52% | viability, T/C [20] 6.04% | viability, T/C [21] 4.55% | viability, T/C [22] 3.48% | viability, T/C [23] 3.6% | viability, T/C [24] 4.17% | viability, T/C [25] 2.4% | viability, T/C [26] 2.9% | viability, T/C [27] 2.49% | viability, T/C [28] 1.88% | viability, T/C [29] 1.99% | viability, T/C [30] 2.82% | viability, T/C [31] 1.11% | viability, T/C [32] 1.51% | viability, T/C [33] 1.22% | viability, T/C [34] 1.75% | viability, T/C [35] 1.64% | viability, T/C [36] 2.19%

COc1ccc([C@@H](O)c2cc(-c3ncnc4cc(N5CCOCC5)ccc34)c(F)cc2Cl)nn1 + Cc1cnc(CNC(=O)c2c(=O)c3ccc(N4CCCN(C)CC4)nc3n3c2sc2ccccc23)cn1
inactive: viability, T/C [1] 95.5% | viability, T/C [2] 81.5% | viability, T/C [3] 58% | viability, T/C [4] 47.1% | viability, T/C [5] 43% | viability, T/C [6] 38% | viability, T/C [7] 59.5% | viability, T/C [8] 59.5% | viability, T/C [9] 40.9% | viability, T/C [10] 25.9% | viability, T/C [11] 23.2% | viability, T/C [12] 26.5% | viability, T/C [13] 26.5% | viability, T/C [14] 26.6% | viability, T/C [15] 14.2%
712 nM: IC50 (second compound 0.0316 µM)
active: viability, T/C [16] 3.09% | viability, T/C [17] 2.64% | viability, T/C [18] 2.37% | viability, T/C [19] 4.74% | viability, T/C [20] 3.32% | viability, T/C [21] 3.45% | viability, T/C [22] 2.29% | viability, T/C [23] 1.33% | viability, T/C [24] 1.08% | viability, T/C [25] 2.27% | viability, T/C [26] 2.54% | viability, T/C [27] 2.01% | viability, T/C [28] 1.72% | viability, T/C [29] 1.23% | viability, T/C [30] 0.95% | viability, T/C [31] 1.48% | viability, T/C [32] 2.1% | viability, T/C [33] 0.71% | viability, T/C [34] 1.8% | viability, T/C [35] 0.73% | viability, T/C [36] 0.29%
< 31.6 nM: IC50 (second compound 0.316 µM) | IC50 (second compound 1 µM) | IC50 (second compound 3.16 µM) | IC50 (second compound 10 µM)
179 nM: IC50 (second compound 0.1 µM)
